# Laboratory results: patent US11491155B2, “Salt of a pyrimido[6,1-A]isoquinolin-4-one compound” (VERONA PHARMA PLC, priority 2015, dated 2022)
# Read-outs that look alike come from different tables or passages of the source.
# Columns and labels:
# [1] = Physico-chemical characteristics of salt candidates: solubility in water, pH of aqueous suspension/solution, form post water maturation
# [2] = Intrinsic dissolution of compressed tablet, pH 7.0, 37° C. (Sirius inForm); assay type: physicochemical; details: pH 7.0, 0.15 M NaCl, 37° C.
# Experimental: The dissolution assay (pH-dependent sample dissolution) was investigated using the Sirius inForm.
# Dissolution of a compressed tablet of the compound was monitored in a pH 7.0 aqueous dissolution experiment (0.15 M NaCl) at 37° C. using UV-absorption spectroscopy in 2 hour experiments. A tablet with a diameter of 3 mm, requiring approximate weights of 10 mg was compressed under a weight of 100 kg load force. Only one face of the tablet was exposed to the dissolution medium, which contained a 0.01 M acetate/phosphate buffer system to minimise perturbation of the experimental pH from dissolution of the drug.
# Stirring of the solution was continuous and at a constant rate of 100 rpm. The absorption data was converted to absolute sample weights using previously determined, pH-dependent, molar extinction coefficients. An appropriate wavelength range was chosen to ensure that spectroscopic data with an absorption value of <1.3 was analysed, avoiding erroneous dissolution results due to saturation of the UV light source.
# [3] = Solubility of RPL554 and salts in pMDI propellant systems; assay type: physicochemical
# Experimental: Quantitative assessment of the solubility of RPL554 and salt variants in the propellant systems of selected pMDI formulations (three replicates of each formulation) was performed. pMDIs were directly coupled to an adaptor fitted with a 0.20 μm filter unit connected, in series to a 21 G needle, which was inserted via a rubber septum, into a cooled multi-dose glass vial. A 19 G filter needle was inserted through the septum to aid evaporation of propellant from the vial. Prior to the filtration process the vial was cooled in a mixture of dry ice and acetone to ensure that the pressure within the vial was reduced in order to facilitate collection of the output from the pMDI. Ten consecutive actuations of the pMDI were fired through the filter and collected in the vial. Between actuations the canister was shaken for approximately 10 seconds. The pMDI unit was weighed before and after the filtering procedure. The filtrate was stored at room temperature and allowed to evaporate to dryness.
# Samples were recovered by carefully rinsing the inside of the vials with 1 mL of recovery solution before transfer to HPLC vials for analysis. The estimated % of RPL554 solubilised within the canister was calculated from the starting mass of RPL554 within the canisters, which in turn was calculated using the theoretical molecular weight values of the RPL554 free base and salt variants shown in Table 13. The theoretical molecular weight estimates of the salts were provided by Verona.
# [4] = Solubility of RPL554 salts in saline solutions, water and aqueous buffer solutions at 25° C. (HPLC); assay type: physicochemical; details: for solubility at 24 h: thermodynamic from solid
# Experimental: The behaviour of salts of RPL554 were examined under the following conditions: • Phosphate buffered to pH 3.5 in saline, 0.9% w/w at 25° C. • Acetate buffered to pH 4.5 in saline, 0.9% w/w at 25° C. • Citro-Phosphate buffered to pH 4.5 in saline, 0.9% w/w at 25° C. • Phosphate buffered to pH 6.5 in saline, 0.9% w/w at 25° C. • Saline, 0.7, 0.9 and 1.1% w/w at 25° C. • Deionised water at 25° C.
# RPL554 salts and RPL554, ca 50 mg, were suspended in the various aqueous media, 1 ml, with agitation at the specified temperatures for 24 hours. The solids were isolated and dried in vacuo at 45° C. The retained filtrates were examined by HPLC.
# Additional RPL554 methane sulfonate salt, ca 50 mg, was charged to the water mixtures at 25° C. and 37.5° C. in order to afford a suspension. In all other cases, suspensions were obtained.
# The solubility of the RPL554 was determined by HPLC using a single point calibration and is expressed as RPL554 and not as the salt and are detailed in Table 6 and Table 7 for the various conditions utilised.
# [5] = Primary particle size analysis by laser light diffraction (Mastersizer 2000); assay type: physicochemical; details: micronised, mean n=3
# Experimental: A Mastersizer 2000 fitted with a Scirocco 2000 dry powder dispersion unit (Malvern Instruments Ltd, UK) was used to analyse the primary particle size of the micronised RPL554 and salt variants. The salts (50 mg) were automatically sampled via a vibrating feed control at a feeder rate of 60% and dispersed in compressed air at a pressure of 3 bar.
# [6] = Aerosol performance of DPI formulations (Cyclohaler, NGI); assay type: physicochemical; details: for †Measured Mass of 1% w/w Blend Delivered per capsule / ††RPL554 Emitted (μg) per capsule (B): Cyclohaler; for †Measured Mass of 1% w/w Blend Delivered per capsule: 5 capsules containing 20 mg powder blend, mass from weight change of capsule-loaded device; for ††RPL554 Emitted (μg) per capsule (B): NGI, mass determined from HPLC analysis of recovered samples; for ††RPL554 Emitted (μg) per capsule (B) / Calculated RPL554 Content (μg) per capsule (A): as RPL554 base; for Calculated RPL554 Content (μg) per capsule (A): calculated from delivered blend mass and measured blend content
# Experimental: Capsules were hand filled with 20 mg of the 1% w/w RPL554 free base or salt variants: lactose blends, i.e. 200 μg salt per capsule, the fill weight of each capsule was recorded. Due to differences in the molecular weights of the RPL554 salt forms, the amount of RPL554 emitted per actuation varied as a function of molecular weight. The formulations were prepared with no adjustment for differences in molecular weight of the salts.
# The powders were delivered via the Cyclohaler® DPI (PCH Pharmachemie, BV, The Netherlands). The Cyclohaler® DPI is a low resistance device and was operated at a flow rate of 90 L/min for 2.7 seconds. The cut off diameters for the NGI collection stages were calculated for the 90 L/min flow rate using the NGI User Guide (MSP Corporation, 2008).
# The ED, FPD and FPF were determined from inertial impaction tests performed following the deposition of 5 capsules of each formulation into the NGI. For each capsule tested the combined weight of the Cyclohaler® and capsule was determined before and after operation to check that the dose had been delivered. The NGI was fitted with a pre-separator for these determinations. The central cup of the pre-separator was filled with 15 mL of diluent. Following deposition, the solution was recovered in a 20 mL volumetric flask and made up to volume with diluent. RPL554 was quantitatively recovered from the device, induction port and each of the NGI collection stages with 10 mL of diluent.
# The volume of diluent used for each sample was selected to ensure RPL554 concentrations were above the limit of quantitation.
# [7] = RPL554 content and content uniformity of 1% w/w lactose powder blends; assay type: physicochemical; details: for Measured Blend Content (% Theoretical): 1% w/w RPL554 variant: lactose powder blend, expressed as RPL554 base; for **Adjusted RPL554 Content per capsule: per 20 mg capsule of 1% w/w lactose blend, adjusted for measured blend content (% theoretical), as RPL554 base
# Experimental: Batches (approximately 5 g) of 1% w/w RPL554 free base or salt variants: lactose blends were prepared. In brief, the RPL554 free base or salt plus a small quantity of lactose was passed through a 38 μm sieve. The sieved material plus the remaining lactose was mixed in a glass mortar prior to transfer to a stainless steel screw cap jar and further mixing (10 minutes at 46 rpm) conducted using a Turbula blender. The composition of the dry powder blend was 0.05 g API and 4.95 g lactose.
# In order to determine the content uniformity of the blends, aliquots (approx. 20 mg) of powder were sampled from each blend, accurately weighed, and diluted to volume in 10 mL volumetric flasks with diluent. The flasks were sonicated for 3 minutes before samples were transferred to HPLC vials for analysis.
# [8] = listed as benzenesulfonate salt
# [9] = HFA 134a: 227: 10% Ethanol: 0.1% Tween
# [10] = in HFA 134, listed as Free Base
# [11] = in HFA 134 with Ethanol/Tween, listed as Free Base
smiles,measurement,setting,value
"COc1cc2c(cc1OC)-c1c/c(=N\c3c(C)cc(C)cc3C)n(CCNC(N)=O)c(=O)n1CC2 [Benzenesulfonate, RPL554 benzenesulfonate]",pH of aqueous suspension/solution,[1]; listed as Benzene sulfonic,3.43
same,solubility,[1]; water,1470 µg/mL
same,"Mass of salt (μg) dissolved after 2 hours, Average",[2]; [8],60.1 µg
same,"Mass of salt (μg) dissolved after 2 hours, Test 1",[2]; [8],50.0 µg
same,"Mass of salt (μg) dissolved after 2 hours, Test 2",[2]; [8],70.1 µg
same,Estimated RPL554 solubilised (%),[3]; in HFA 134 with Ethanol/Tween,4.03%
same,Estimated Solubilised RPL554 μg per 50 μL actuation,[3]; in HFA 134 with Ethanol/Tween,6.05 µg
same,Solubility RPL554,[3]; in HFA 134 with Ethanol/Tween,90.57 µg/g
same,solubility at 24 h,"[4]; 0.7% w/w saline, saline or isotonic, 24 hours, read-out: Solubility as RPL554 (mg/ml) in 0.7 w/w % Saline",2.27 mg/mL
same,solubility at 24 h,"[4]; 0.9% w/w saline, saline or isotonic, 24 hours, read-out: Solubility as RPL554 (mg/ml) in 0.9 w/w % Saline",2.74 mg/mL
same,solubility at 24 h,"[4]; 1.1% w/w saline, saline or isotonic, 24 hours, read-out: Solubility as RPL554 (mg/ml) in 1.1 w/w % Saline",2.94 mg/mL
same,solubility at 24 h,"[4]; acetate buffer in 0.9% w/w saline, pH 4.5, aqueous buffer, in saline 0.9% w/w, read-out: Solubility as RPL554 (mg/ml) in buffer solution pH 4.5, Acetate",1.39 mg/mL
same,solubility at 24 h,"[4]; citro-phosphate buffer in 0.9% w/w saline, pH 4.5, aqueous buffer, in saline 0.9% w/w, read-out: Solubility as RPL554 (mg/ml) in buffer solution pH 4.5, Citro-phosphate",1.57 mg/mL
same,solubility at 24 h,"[4]; phosphate buffer in 0.9% w/w saline, pH 3.5, aqueous buffer, in saline 0.9% w/w, read-out: Solubility as RPL554 (mg/ml) in buffer solution pH 3.5, Phosphate",1.1 mg/mL
same,solubility at 24 h,"[4]; deionised water, 24 hours, read-out: Solubility as RPL554 (mg/ml) in Water",2.57 mg/mL
same,D (0.1) (μm),[5],0.46 μm
same,D (0.5) (μm),[5],1.23 μm
same,D (0.9) (μm),[5],3.51 μm
same,†Measured Mass of 1% w/w Blend Delivered per capsule,[6],20.04 mg
same,††RPL554 Emitted (μg) per capsule (B),[6],87.57 µg
same,Calculated RPL554 Content (μg) per capsule (A),[6],134.49 µg
same,Measured Blend Content (% Theoretical),[7],89.34 % Theoretical
same,**Adjusted RPL554 Content per capsule,[7],134.22 µg
COc1cc2c(cc1OC)-c1c/c(=N\c3c(C)cc(C)cc3C)n(CCNC(N)=O)c(=O)n1CC2 [Naphthalene-2-sulfonate],Solubility as RPL554 (mg/ml) in 0.7 w/w % Saline,[4]; 24 hours,0.17 mg/mL
same,Solubility as RPL554 (mg/ml) in 0.9 w/w % Saline,[4]; 24 hours,0.09 mg/mL
same,Solubility as RPL554 (mg/ml) in 1.1 w/w % Saline,[4]; 24 hours,0.09 mg/mL
same,Solubility as RPL554 (mg/ml) in Water,"[4]; deionised water, 24 hours",0.13 mg/mL
"COc1cc2c(cc1OC)-c1c/c(=N\c3c(C)cc(C)cc3C)n(CCNC(N)=O)c(=O)n1CC2 [Phosphate, RPL554 phosphate]",pH of aqueous suspension/solution,[1]; listed as Phosphoric,3.08
same,Solubility as RPL554 (mg/ml) in 0.7 w/w % Saline,[4]; 24 hours,7.22 mg/mL
same,Solubility as RPL554 (mg/ml) in 0.9 w/w % Saline,[4]; 24 hours,4.78 mg/mL
same,Solubility as RPL554 (mg/ml) in 1.1 w/w % Saline,[4]; 24 hours,2.86 mg/mL
same,Solubility as RPL554 (mg/ml) in Water,"[4]; deionised water, 24 hours",41.84 mg/mL
"COc1cc2c(cc1OC)-c1c/c(=N\c3c(C)cc(C)cc3C)n(CCNC(N)=O)c(=O)n1CC2 [RPL554, 9,10-dimethoxy-2-(2,4,6-trimethylphenylimino)-3-(N-carbamoyl-2-aminoethyl)-3,4,6,7-tetrahydro-2H-pyrimido[6,1-a]isoquinolin-4-one]","Mass of salt (μg) dissolved after 2 hours, Average",[2]; listed as free base,13.5 µg
same,"Mass of salt (μg) dissolved after 2 hours, Test 1",[2]; listed as free base,10.0 µg
same,"Mass of salt (μg) dissolved after 2 hours, Test 2",[2]; listed as free base,17.0 µg
same,Estimated Solubilised RPL554 μg per 50 μL actuation,[3]; [9],1.06 µg
same,Solubility RPL554,[3]; [9],16.11 µg/g
same,Estimated RPL554 solubilised (%),"[3]; HFA 134a: 227: 10% Ethanol: 0.1% Tween, listed as Free base",0.53%
same,Solubility RPL554 (μg/g),"[3]; in HFA 134, BLQ = below limit of quantitation (0.06 μg/mL), listed as Free Base",BLQ
same,Calculated RPL554 solubilised (%),[3]; [10],BLQ
same,Calculated Solubilised RPL554 μg per 50 μL actuation,[3]; [10],BLQ
same,Estimated RPL554 solubilised (%),[3]; [11],0.56%
same,Estimated Solubilised RPL554 μg per 50 μL actuation,[3]; [11],1.12 µg
same,Solubility RPL554,[3]; [11],16.45 µg/g
same,D (0.1) (μm),[5]; listed as Free base,0.58 μm
same,D (0.5) (μm),[5]; listed as Free base,1.37 μm
same,D (0.9) (μm),[5]; listed as Free base,3.00 μm
same,†Measured Mass of 1% w/w Blend Delivered per capsule,[6]; listed as Free Base,20.12 mg
same,††RPL554 Emitted (μg) per capsule (B),[6]; listed as Free Base,133.59 µg
same,Calculated RPL554 Content (μg) per capsule (A),[6]; listed as Free Base,194.03 µg
same,Measured Blend Content (% Theoretical),[7]; listed as Free Base,96.44 % Theoretical
same,**Adjusted RPL554 Content per capsule,[7]; listed as Free Base,192.87 µg
COc1cc2c(cc1OC)-c1c/c(=N\c3c(C)cc(C)cc3C)n(CCNC(N)=O)c(=O)n1CC2 [Sulfuric - ethanol solution],pH of aqueous suspension/solution,[1],3.28
